Experimental findings from paper PMC12421961, “PmeR, a TetR-like transcriptional regulator, is involved in both auxin signaling and virulence in the plant pathogen Pseudomonas syringae strain PtoDC3000” (mBio, 2025) are described below.

In series [1] the target is T1, PmeR (Pseudomonas syringae group genomosp. 3, UniProt Q87X86).
T1 construct: gene PSPTO_4302; full-length coding region (672 bp), N-terminal His tag, pET-28a, E. coli BL21(DE3), codon-optimized; nickel column; tag removal not mentioned
Description: EMSA, release of PmeR from […]-labelled operator DNA. The class given is binding. The following applies: 6.25 nM PmeR, 1.5 nM pmeR-mexA intergenic DNA probe, pH 8.0, 25 °C; lowest complete-release concentration in a dilution series, not a Kd or IC50. (A gel shift assay detects complexes by their altered migration in electrophoresis.)

For series [2], the target named is T2, PmeR (TetR-like regulator) (Pseudomonas syringae strain PtoDC3000) (UniProt Q87X86).
T2 sequence: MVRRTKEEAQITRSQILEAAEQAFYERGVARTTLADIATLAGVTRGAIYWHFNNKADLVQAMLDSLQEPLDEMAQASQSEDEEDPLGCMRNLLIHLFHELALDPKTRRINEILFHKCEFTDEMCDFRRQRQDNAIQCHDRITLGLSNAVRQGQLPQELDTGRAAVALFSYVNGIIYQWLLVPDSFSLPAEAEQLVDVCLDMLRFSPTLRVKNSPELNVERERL
Description: competition. The following applies: 25 mM Tris-acetate pH 8.0, 8 mM Mg-acetate, 10 mM KCl, 1 mM DTT, 460 uM HCl ([…].

Regarding `N[C@@H](CCCCNC(=O)Cc1c[nH]c2ccccc12)C(=O)O` [IAA-Lys], the “concentration sufficient for complete shift to unbound DNA” value in series [1] stood at 750 µM.

Take “CGGAATTCGGTGCGACGAACCATGGCAATAAGACCTCAAAAGATTCACCTCATGCGTGCATCTGGTGCATGCCTTGAGGTATGACCGGGCGGCATTTGTCTCGCCTTGTCCCGAACTGGCATTCAGCACCTTGAATAGTGGCCGAATGCGCAAAGCGGGTGTTTACAAACAACCGCGAATGTAAGTATATTCCTTAGCATGCTACTTATCTAGCCGAAATATTTTTTAACACTTCAACGTACTGTTGAGAAAACAGGCTCCTGCCCCGAGGATCTTCGGTACCCC (double strand) [pmeR-mexA intergenic region probe]”: the binding entry in series [2] is “binds”.
